Each block holds one compound with its values, some of them ahead of it.
What was measured:
[1] = molecular target: Mitogen-activated protein kinase 14 (Homo sapiens, UniProt Q16539); test: Selectivity interaction (SelectScreen profiling (Invitrogen)) EUB0000607a MAPK14; details: at 2 µM
[2] = molecular target: T1, Ephrin type-B receptor 3 (Homo sapiens) (UniProt P54753); details: at 10 µM
T1 sequence (whole entry): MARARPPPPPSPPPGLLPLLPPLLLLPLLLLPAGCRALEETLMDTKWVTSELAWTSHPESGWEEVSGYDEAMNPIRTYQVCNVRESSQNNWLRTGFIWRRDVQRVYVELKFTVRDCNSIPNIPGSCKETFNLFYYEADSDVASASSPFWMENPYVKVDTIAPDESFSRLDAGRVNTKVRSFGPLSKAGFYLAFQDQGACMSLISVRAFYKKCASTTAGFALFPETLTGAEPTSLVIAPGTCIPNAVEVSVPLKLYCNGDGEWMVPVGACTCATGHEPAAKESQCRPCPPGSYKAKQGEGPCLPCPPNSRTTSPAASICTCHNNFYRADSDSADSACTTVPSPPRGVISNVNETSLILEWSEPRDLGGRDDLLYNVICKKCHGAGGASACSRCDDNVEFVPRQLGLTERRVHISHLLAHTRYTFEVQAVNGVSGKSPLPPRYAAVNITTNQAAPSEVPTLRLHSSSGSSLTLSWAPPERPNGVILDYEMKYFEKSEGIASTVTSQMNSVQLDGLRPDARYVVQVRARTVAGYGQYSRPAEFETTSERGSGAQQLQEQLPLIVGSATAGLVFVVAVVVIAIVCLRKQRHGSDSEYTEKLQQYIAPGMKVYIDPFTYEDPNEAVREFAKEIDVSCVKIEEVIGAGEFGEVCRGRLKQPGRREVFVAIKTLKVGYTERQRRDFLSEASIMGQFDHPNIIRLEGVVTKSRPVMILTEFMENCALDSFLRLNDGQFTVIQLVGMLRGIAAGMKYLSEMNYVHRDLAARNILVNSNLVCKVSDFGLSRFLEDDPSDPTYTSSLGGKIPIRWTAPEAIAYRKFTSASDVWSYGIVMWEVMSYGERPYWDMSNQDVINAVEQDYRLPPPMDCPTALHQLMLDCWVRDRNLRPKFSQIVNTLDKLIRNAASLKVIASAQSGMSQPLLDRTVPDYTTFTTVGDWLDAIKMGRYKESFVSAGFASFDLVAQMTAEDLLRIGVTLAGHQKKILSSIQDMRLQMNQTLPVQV

[3] = molecular target: T2, Serine/threonine-protein kinase TBK1 (Homo sapiens) (UniProt Q9UHD2); test: Selectivity interaction (ActivX KiNativ screen (kinase selectivity in THP-1 cell lysates)) EUB0000639a TBK1; assay type: subcellular; details: lysate, at 0.2 µM
T2 sequence (whole entry): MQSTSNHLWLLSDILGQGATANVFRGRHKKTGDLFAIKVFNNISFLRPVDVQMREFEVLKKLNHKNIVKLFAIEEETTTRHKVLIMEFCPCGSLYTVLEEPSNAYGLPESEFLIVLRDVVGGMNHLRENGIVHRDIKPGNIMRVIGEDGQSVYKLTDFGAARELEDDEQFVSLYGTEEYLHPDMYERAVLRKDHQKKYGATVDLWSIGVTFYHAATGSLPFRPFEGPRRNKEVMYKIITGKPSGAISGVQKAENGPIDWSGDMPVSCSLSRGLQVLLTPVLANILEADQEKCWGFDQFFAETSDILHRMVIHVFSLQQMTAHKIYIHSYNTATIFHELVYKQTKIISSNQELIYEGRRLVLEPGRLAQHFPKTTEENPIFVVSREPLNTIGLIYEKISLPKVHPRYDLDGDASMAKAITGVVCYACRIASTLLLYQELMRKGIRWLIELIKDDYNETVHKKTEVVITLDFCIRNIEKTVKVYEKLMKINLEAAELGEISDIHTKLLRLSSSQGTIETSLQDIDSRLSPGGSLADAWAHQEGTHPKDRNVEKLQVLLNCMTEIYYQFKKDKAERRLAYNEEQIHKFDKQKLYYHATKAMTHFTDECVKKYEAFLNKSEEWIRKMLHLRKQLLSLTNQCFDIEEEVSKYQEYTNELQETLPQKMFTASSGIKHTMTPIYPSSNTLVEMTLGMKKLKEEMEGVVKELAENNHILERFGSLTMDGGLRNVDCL

[4] = system: Epidermal growth factor receptor (Homo sapiens), P00533 [UNDEFINED MUTATION]; test: Selectivity interaction (Ambit KINOMEscan and KiNATiv profiling in Jurkat cells) EUB0000090b EGFR; assay type: cell-based; details: at 1 µM
Chain of Epidermal growth factor receptor (Homo sapiens), P00533 [UNDEFINED MUTATION] (P00533 whole entry, looked up, change not shown): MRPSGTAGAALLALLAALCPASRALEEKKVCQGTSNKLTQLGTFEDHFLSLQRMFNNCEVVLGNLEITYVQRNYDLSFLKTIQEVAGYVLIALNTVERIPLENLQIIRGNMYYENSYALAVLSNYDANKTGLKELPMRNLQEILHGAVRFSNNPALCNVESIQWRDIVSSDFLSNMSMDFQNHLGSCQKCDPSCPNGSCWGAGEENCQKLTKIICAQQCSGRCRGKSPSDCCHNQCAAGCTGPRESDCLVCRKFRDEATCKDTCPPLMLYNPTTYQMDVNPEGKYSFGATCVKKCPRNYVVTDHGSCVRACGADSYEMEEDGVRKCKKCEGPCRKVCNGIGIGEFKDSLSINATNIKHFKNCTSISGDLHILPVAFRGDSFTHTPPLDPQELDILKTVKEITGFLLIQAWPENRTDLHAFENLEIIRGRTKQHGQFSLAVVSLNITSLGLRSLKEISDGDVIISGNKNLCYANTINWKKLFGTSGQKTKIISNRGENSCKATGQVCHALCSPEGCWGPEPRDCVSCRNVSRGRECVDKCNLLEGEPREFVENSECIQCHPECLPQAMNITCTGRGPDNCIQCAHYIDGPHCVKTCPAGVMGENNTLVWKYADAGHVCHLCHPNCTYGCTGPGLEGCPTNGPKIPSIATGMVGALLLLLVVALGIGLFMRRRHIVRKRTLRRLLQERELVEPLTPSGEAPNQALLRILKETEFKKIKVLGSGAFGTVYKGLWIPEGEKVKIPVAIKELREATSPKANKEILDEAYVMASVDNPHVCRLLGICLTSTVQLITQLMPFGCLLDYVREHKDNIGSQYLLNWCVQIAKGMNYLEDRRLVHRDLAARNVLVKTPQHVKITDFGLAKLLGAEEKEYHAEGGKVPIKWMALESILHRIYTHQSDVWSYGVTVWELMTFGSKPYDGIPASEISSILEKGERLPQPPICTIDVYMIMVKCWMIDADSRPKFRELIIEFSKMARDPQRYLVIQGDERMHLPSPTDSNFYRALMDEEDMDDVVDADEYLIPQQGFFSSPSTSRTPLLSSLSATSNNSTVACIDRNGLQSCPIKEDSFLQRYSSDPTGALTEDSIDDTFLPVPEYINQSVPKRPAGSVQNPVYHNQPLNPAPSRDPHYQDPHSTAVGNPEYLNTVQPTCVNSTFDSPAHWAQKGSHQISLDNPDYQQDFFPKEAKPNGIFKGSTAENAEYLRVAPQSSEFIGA

[5] = molecular target: MAP kinase-interacting serine/threonine-protein kinase 1 (Homo sapiens) (UniProt Q9BUB5); test: Selectivity interaction (KinomeScan (DiscoverX)) EUB0001079a MKNK1; details: at 1 µM
Chain of MAP kinase-interacting serine/threonine-protein kinase 1 (Homo sapiens) (Q9BUB5 whole entry, looked up): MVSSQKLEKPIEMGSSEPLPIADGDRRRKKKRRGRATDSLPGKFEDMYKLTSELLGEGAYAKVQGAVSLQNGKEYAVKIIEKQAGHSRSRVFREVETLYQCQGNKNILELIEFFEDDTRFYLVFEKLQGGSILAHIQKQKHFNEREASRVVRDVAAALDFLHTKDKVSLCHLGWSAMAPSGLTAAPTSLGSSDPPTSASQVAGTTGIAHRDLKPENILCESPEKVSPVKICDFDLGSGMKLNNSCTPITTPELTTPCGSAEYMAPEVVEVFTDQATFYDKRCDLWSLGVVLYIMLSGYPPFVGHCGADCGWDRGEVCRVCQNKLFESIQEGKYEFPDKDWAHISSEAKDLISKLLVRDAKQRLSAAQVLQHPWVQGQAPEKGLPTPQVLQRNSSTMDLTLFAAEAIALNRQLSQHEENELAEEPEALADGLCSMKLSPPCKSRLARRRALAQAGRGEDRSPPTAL

[6] = molecular target: Protein-tyrosine kinase 6 (Homo sapiens, UniProt Q13882); test: Selectivity interaction (KinomeScan (DiscoverX)) EUB0000092b PTK6; details: at 10 µM
Chain of Protein-tyrosine kinase 6 (Q13882 whole entry, looked up): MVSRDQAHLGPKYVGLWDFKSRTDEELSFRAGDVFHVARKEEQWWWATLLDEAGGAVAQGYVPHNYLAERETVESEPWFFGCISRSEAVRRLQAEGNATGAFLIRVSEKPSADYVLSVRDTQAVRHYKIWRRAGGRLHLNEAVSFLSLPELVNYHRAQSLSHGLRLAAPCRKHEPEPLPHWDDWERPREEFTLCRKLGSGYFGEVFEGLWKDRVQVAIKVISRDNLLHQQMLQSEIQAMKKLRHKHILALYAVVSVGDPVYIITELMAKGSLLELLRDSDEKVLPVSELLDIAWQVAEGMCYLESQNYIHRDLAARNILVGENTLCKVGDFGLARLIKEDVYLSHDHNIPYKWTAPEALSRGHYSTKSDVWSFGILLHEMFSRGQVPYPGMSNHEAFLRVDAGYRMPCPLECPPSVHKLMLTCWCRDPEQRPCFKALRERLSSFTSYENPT

[7] = molecular target: T2, Serine/threonine-protein kinase TBK1 (Homo sapiens); test: Selectivity interaction (KinomeScan (DiscoverX)) EUB0000618a TBK1; details: at 10 µM

Chain of Mitogen-activated protein kinase 14 (Q16539 whole entry): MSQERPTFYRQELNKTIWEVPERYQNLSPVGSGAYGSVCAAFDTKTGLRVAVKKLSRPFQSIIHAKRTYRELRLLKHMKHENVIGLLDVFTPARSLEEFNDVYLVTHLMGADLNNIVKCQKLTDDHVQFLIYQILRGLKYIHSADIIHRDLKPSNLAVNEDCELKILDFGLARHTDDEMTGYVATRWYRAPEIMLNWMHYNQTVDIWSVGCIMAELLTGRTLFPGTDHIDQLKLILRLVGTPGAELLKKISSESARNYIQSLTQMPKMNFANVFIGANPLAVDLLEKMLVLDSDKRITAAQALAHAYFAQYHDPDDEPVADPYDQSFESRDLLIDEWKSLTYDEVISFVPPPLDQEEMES

Structure (SMILES): CNC(=O)Nc1ccc(-c2nc(N3CC4CCC(C3)O4)c3cnn(C4CCC5(CC4)OCCO5)c3n2)cc1
% of inhibition [1]: 11%

% of control [2]: 100%
Structure (SMILES): CCN(CC)CCCCNc1ncc2cc(-c3cc(OC)cc(OC)c3)c(NC(=O)NC(C)(C)C)nc2n1

% of inhibition [3]: -31.6%
Structure (SMILES): CC[C@@H]1[C@H](F)C(=O)N[C@@H]1COc1nccc2cc(C(N)=O)c(OC)cc12 [ZIMLOVISERTIB]

Structure (SMILES): CN(C)C/C=C/C(=O)Nc1ccc(C(=O)N2CCCC(Nc3ncc(Cl)c(-c4c[nH]c5ccccc45)n3)C2)cc1 (configuration not stated)
% of control [4]: 94%

Structure (SMILES): Nc1cnc(N2CCc3cc(S(=O)(=O)Nc4c(F)cc(Cl)cc4F)cc(N4CCCC4=O)c32)nc1 [TP-020n]
% of control [5]: 98%

Structure (SMILES): CCC(=O)N1CCN(c2ccc(-n3c(=O)ccc4cnc5ccc(-c6cnc7ccccc7c6)cc5c43)cc2C(F)(F)F)CC1
% of control [6]: 51%

Structure (SMILES): O[C@H]1CC[C@H](Nc2ncc3nc(Nc4c(F)cc(F)cc4F)n([C@H]4CCOC4)c3n2)CC1
% of control [7]: 74%
